Assay results reported in ChEMBL document CHEMBL5528023, “Discovery of a CB2 and 5-HT1A receptor dual agonist for the treatment of depression and anxiety” (Eur J Med Chem, 2024).
Values after ≈ are worked out from the molar mass of the structure shown.

Key:
[1] = target: T1, Cannabinoid receptor 2 (Homo sapiens, UniProt P34972); assay: Agonist activity at human CB2 receptor expressed in CHO cells assessed as forskolin-stimulated cAMP formation preincubated with compound for 10 mins followed by forskolin induction and measured after 30 mins by HTRF analysis; format: functional, cell-based
T1 sequence (P34972 whole entry): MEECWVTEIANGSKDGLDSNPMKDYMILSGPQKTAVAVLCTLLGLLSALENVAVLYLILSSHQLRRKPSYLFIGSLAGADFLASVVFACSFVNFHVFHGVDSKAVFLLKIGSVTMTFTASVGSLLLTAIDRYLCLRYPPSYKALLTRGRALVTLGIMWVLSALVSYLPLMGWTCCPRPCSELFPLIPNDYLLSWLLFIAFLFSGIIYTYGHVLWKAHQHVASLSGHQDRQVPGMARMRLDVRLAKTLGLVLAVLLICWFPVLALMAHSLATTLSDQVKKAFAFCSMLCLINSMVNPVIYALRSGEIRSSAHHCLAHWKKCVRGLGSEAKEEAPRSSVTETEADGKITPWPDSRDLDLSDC

[2] = target: T2, Cannabinoid receptor 1 (Homo sapiens, UniProt P21554); assay: Antagonist activity at human CB1 receptor expressed in CHO cells assessed as inhibition of forskolin-stimulated cAMP formation by measuring maximum inhibition preincubated with compound for 10 mins followed by forskolin induction and measured after 30 mins by HTRF analysis relative to control; format: functional, cell-based; details: filed as antagonist, time 40.0 min
T2 sequence (P21554 whole entry): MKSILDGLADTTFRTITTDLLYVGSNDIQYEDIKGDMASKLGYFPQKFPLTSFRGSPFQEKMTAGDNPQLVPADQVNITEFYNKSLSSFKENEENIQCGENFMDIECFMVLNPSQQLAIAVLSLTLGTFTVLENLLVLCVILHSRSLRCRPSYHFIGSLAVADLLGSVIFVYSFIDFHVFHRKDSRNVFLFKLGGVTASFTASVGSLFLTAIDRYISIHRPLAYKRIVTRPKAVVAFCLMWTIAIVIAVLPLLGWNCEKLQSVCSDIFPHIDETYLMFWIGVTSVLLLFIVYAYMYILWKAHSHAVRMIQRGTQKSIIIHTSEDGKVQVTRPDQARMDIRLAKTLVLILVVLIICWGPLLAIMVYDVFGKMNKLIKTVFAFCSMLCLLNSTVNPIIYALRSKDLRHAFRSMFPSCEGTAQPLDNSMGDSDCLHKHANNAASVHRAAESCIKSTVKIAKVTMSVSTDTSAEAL

[3] = target: T2, Cannabinoid receptor 1; assay: Antagonist activity at human CB1 receptor expressed in CHO cells assessed as inhibition of forskolin-stimulated cAMP formation preincubated with compound for 10 mins followed by forskolin induction and measured after 30 mins by HTRF analysis; format: functional, cell-based
[4] = target: T3, 5-hydroxytryptamine receptor 1A (Homo sapiens) (UniProt P08908); assay: Agonist activity at human 5HT1A receptor expressed in HEK293 cells assessed as forskolin-stimulated cAMP formation preincubated with compound for 10 mins followed by forskolin induction and measured after 30 mins by HTRF analysis relative to control; format: functional, cell-based; details: filed as agonist, time 40.0 min
T3 sequence (whole entry): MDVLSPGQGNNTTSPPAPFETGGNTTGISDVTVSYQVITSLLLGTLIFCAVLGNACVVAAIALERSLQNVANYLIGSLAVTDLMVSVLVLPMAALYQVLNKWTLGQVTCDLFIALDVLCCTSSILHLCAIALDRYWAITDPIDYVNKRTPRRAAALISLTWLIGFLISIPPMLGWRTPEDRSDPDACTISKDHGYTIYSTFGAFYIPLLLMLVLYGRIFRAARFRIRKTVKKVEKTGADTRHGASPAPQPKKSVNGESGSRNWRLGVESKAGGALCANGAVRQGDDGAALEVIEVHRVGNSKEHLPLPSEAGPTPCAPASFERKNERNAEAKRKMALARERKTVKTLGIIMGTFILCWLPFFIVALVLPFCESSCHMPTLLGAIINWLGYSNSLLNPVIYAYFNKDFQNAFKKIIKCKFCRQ

[5] = target: T4, 5-hydroxytryptamine receptor 1A (Homo sapiens, UniProt P08908); assay: Agonist activity at human 5HT1A receptor expressed in HEK293 cells assessed as forskolin-stimulated cAMP formation preincubated with compound for 10 mins followed by forskolin induction and measured after 30 mins by HTRF analysis; format: functional, cell-based
T4 sequence (P08908 whole entry): T3 sequence (whole entry)

[6] = Cmax in ICR mouse at 25 mg/kg, po measured upto 8 hrs by LC-MS/MS analysis; format: ADME, organism-based; details: in vivo
[7] = Half life in ICR mouse at 25 mg/kg, po measured upto 8 hrs by LC-MS/MS analysis; format: ADME, organism-based; details: in vivo
[8] = Tmax in ICR mouse at 25 mg/kg, po measured upto 8 hrs by LC-MS/MS analysis; format: ADME, organism-based; details: in vivo
[9] = Cmax in ICR mouse brain at 25 mg/kg, po measured upto 8 hrs by LC-MS/MS analysis; format: ADME, organism-based
[10] = Solubility of compound in phosphate buffer at pH 6.8 by HPLC analysis; format: physicochemical
[11] = AUClast in ICR mouse at 25 mg/kg, po measured upto 8 hrs by LC-MS/MS analysis; format: ADME, organism-based; details: in vivo
[12] = target: T1, Cannabinoid receptor 2; assay: Partial agonist activity at human CB2 receptor expressed in CHO cells assessed as forskolin-stimulated cAMP formation preincubated with compound for 10 mins followed by forskolin induction and measured after 30 mins by HTRF analysis; format: functional, cell-based
[13] = target: T1, Cannabinoid receptor 2; assay: Partial agonist activity at human CB2 receptor expressed in CHO cells assessed as forskolin-stimulated cAMP formation preincubated with compound for 10 mins followed by forskolin induction and measured after 30 mins by HTRF analysis relative to control; format: functional, cell-based; details: filed as partial agonist, time 40.0 min
[14] = target: T1, Cannabinoid receptor 2; assay: Agonist activity at CB2 receptor (unknown origin); format: functional
[15] = system: Mus musculus; assay: Anxiolytic activity against stress-induced hyperthermia in ip dosed ICR mouse assessed as reduction in delta temperature measured for 60 mins; format: functional, organism-based; details: dose 1-10 mg/kg
[16] = system: Mus musculus; assay: Anxiolytic activity against stress-induced hyperthermia in ip dosed ICR mouse assessed as reduction in basal core rectal temperature measured for 60 mins; format: functional, organism-based; details: dose 3-10 mg/kg

## C=C(C)[C@@H]1CCC(C)=C[C@H]1c1c(O)cc(C2CC2)cc1O
[1]
  EC50: > 10 nM
[2]
  Imax: 94%
[3]
  IC50: 4400 nM

## C=C(C)[C@@H]1CCC(C)=C[C@H]1c1c(O)cc(CCCCC)cc1O [CANNABIDIOL]
[4]
  Emax: 64%
[2]
  Imax: 88.3%
[5]
  EC50: 4200 nM
[6]
  Cmax: 145 ng/mL
[7]
  half-life: 4.3 h
[8]
  Tmax: 0.7 h
[9]
  Cmax: 239 ng/g
[10]
  solubility: 0.04 µg/mL (≈ 0.127 µM)
[11]
  AUC(0-t) at 8 h: 289 ng·h/mL

## C=C(C)[C@@H]1CCC(C)=C[C@H]1c1c(O)cc(C2CCCC2)cc1O
[12]
  EC50: 113 nM
[13]
  Emax: 76.3%
[6]
  Cmax: 514 ng/mL
[7]
  half-life: 1.8 h
[8]
  Tmax: 1 h
[11]
  AUC(0-t) at 8 h: 1080 ng·h/mL

## C=C(C)[C@@H]1CCC(C)=C[C@H]1c1c(O)cc(CCCCC)c(C(=O)NC)c1O
[1]
  EC50: > 10 nM
[2]
  Imax: 75.3%
[3]
  IC50: 2600 nM
[10]
  solubility: 0.7 µg/mL (≈ 1.88 µM)

## C=C(C)[C@@H]1CCC(C)=C[C@H]1c1c(O)cc(C2(CCCC)CC2)c(C(=O)N(C)C)c1O
[2]
  Imax: 87.2%
[12]
  EC50: 755 nM
[3]
  IC50: 2700 nM
[13]
  Emax: 47.2%
[6]
  Cmax: 62.7 ng/mL
[7]
  half-life: 1.7 h
[8]
  Tmax: 0.7 h
[11]
  AUC(0-t) at 8 h: 115 ng·h/mL

## C=C(C)[C@@H]1CCC(C)=C[C@H]1c1c(O)cc(C(C)(C)CCCC)c(C(=O)NC)c1O
[1]
  EC50: > 10000 nM
[2]
  Imax: 104%
[3]
  IC50: 4400 nM

## C=C(C)[C@@H]1CCC(C)=C[C@H]1c1c(O)cc(CCC)cc1O [CANNABIDIVARIN]
[1]
  EC50: > 10 nM
[2]
  Imax: 94.9%
[3]
  IC50: 5600 nM

## C=C(C)[C@@H]1CCC(C)=C[C@H]1c1c(O)cc(CCCCC)c(C(=O)N(C)C)c1O
[2]
  Imax: 88.9%
[12]
  EC50: 1010 nM
[3]
  IC50: 6900 nM
[13]
  Emax: 73.6%
[6]
  Cmax: 22.2 ng/mL
[7]
  half-life: 1.7 h
[8]
  Tmax: 0.4 h
[10]
  solubility: 3 µg/mL (≈ 7.78 µM)
[11]
  AUC(0-t) at 8 h: 26.3 ng·h/mL

## C=C(C)[C@@H]1CCC(C)=C[C@H]1c1c(O)cc(C2(CCCC)CC2)c(C(=O)NC)c1O
[1]
  EC50: > 10000 nM
[2]
  Imax: 91.1%
[3]
  IC50: 2200 nM

## C=C(C)[C@@H]1CCC(C)=C[C@H]1c1c(O)cc(-c2ccccc2)cc1O
[1]
  EC50: > 10 nM
[3]
  IC50: > 10000 nM

## C=C(C)[C@@H]1CCC(C)=C[C@H]1c1c(O)cc(C2CCCCC2)cc1O
[12]
  EC50: 55.2 nM
[13]
  Emax: 62.7%
[6]
  Cmax: 216 ng/mL
[7]
  half-life: 2.7 h
[8]
  Tmax: 0.8 h
[11]
  AUC(0-t) at 8 h: 616 ng·h/mL

## C=C(C)[C@@H]1CCC(C)=C[C@H]1c1c(O)cc(CCCCC)c(C(N)=O)c1O
[1]
  EC50: > 10 nM
[2]
  Imax: 86.3%
[3]
  IC50: 2700 nM
[10]
  solubility: 0.6 µg/mL (≈ 1.68 µM)

## C=C(C)[C@@H]1CCC(C)=C[C@H]1c1c(O)cc(C(=O)CCCC)cc1O
[2]
  Imax: 82.9%
[12]
  EC50: 4690 nM
[3]
  IC50: 9900 nM
[13]
  Emax: 75.7%

## C=C(C)[C@@H]1CCC(C)=C[C@H]1c1c(O)cc(CCCCC)c(C(=O)NCCCCC)c1O
[1]
  EC50: > 10 nM
[3]
  IC50: > 10000 nM

## C=C(C)[C@@H]1CCC(C)=C[C@H]1c1c(O)cc(CCCCC)c(C(=O)NCCN(C)C)c1O
[1]
  EC50: > 10 nM
[3]
  IC50: > 10000 nM

## Cc1ccc(CC2CN(C(=O)C3C(C)(C)[C@@H]4CC[C@]3(C)C4)N=C2c2ccc(Cl)c(C)c2)cc1 (some centres undefined)
[14]
  EC50: 190 nM

## C=C(C)[C@@H]1CCC(C)=C[C@H]1c1c(O)cc(C#CC)cc1O
[1]
  EC50: > 10 nM
[2]
  Imax: 96.7%
[3]
  IC50: 3300 nM

## C=C(C)[C@@H]1CCC(C)=C[C@H]1c1c(O)cc(C2CC2)c(C(=O)NC)c1O
[1]
  EC50: > 10000 nM
[3]
  IC50: > 10000 nM

## CN1C(=O)CN=C(c2ccccc2)c2cc(Cl)ccc21
[15]
  Activity: Dose-Dependent Effect
[16]
  Activity: Dose-Dependent Effect

## C=C(C)[C@@H]1CCC(C)=C[C@H]1c1c(O)cc(C)cc1O
[1]
  EC50: > 10000 nM
[2]
  Imax: 115%
[3]
  IC50: 6300 nM

## C=C(C)[C@@H]1CCC(C)=C[C@H]1c1c(O)cc(C(C)C)cc1O
[1]
  EC50: > 10 nM
[2]
  Imax: 94%
[3]
  IC50: 18 nM

## C=C(C)[C@@H]1CCC(C)=C[C@H]1c1c(O)cc(CCCCC)c(C(=O)NC2CC2)c1O
[1]
  EC50: > 10 nM
[2]
  Imax: 88.9%
[3]
  IC50: 2300 nM

## C=C(C)[C@@H]1CCC(C)=C[C@H]1c1ccc(C2CC2)c(C(N)=O)c1O
[2]
  Imax: 108%
[12]
  EC50: 560 nM
[3]
  IC50: 6500 nM
[13]
  Emax: 44.7%
[6]
  Cmax: 90.4 ng/mL
[7]
  half-life: 2.9 h
[8]
  Tmax: 0.4 h
[11]
  AUC(0-t) at 8 h: 170 ng·h/mL

## C=C(C)[C@@H]1CCC(C)=C[C@H]1c1c(O)cc(-c2ccccn2)cc1O
[1]
  EC50: > 10 nM
[2]
  Imax: 92.1%
[3]
  IC50: 6300 nM

## C=Cc1cc(O)c([C@@H]2C=C(C)CC[C@H]2C(=C)C)c(O)c1
[1]
  EC50: > 10 nM
[2]
  Imax: 83.3%
[3]
  IC50: 6400 nM
